Assay [1] deals with cell growth inhibition by endoplasmic reticulum stress. Particulars: from WO2019/131656A; read-out: 50% inhibitory concentration for cell growth inhibition by endoplasmic reticulum stress; cited from earlier work.
In assay [2] the test system is 293A cells. Kind of assay: Cytoprotection under endoplasmic reticulum stress conditions (Tm-induced cell death). It counts as cell-based. Particulars: compound concentration inhibiting Tm-induced cell death by 50%, Tm 0.2 µg/mL, reporter cells. On the procedure: The reporter cells same as those used in Example 1 were placed in each well of a 96-well assay plate and were treated with Tm at a final concentration of 0.2 µg/mL and the test compound. […]

Assay [3] deals with endoplasmic reticulum stress response induced by Tm. Put plainly: Suppression of endoplasmic reticulum stress response (ERSE2-UPRE-AARE-EGFP reporter fluorescence). The assay is classed as cell-based. Particulars: 293A reporter cells, incubated at 37°C overnight, read-out: Suppression rank of endoplasmic reticulum stress response. Here is the method:
A solution of the compound synthesized in "(1) Synthesis of benzothiazoimidazolyl compound" was appropriately diluted with a DMEM solution containing 10% fetal bovine serum (FBS), and the diluted solution was added to a 384-well assay plate at 10 µL/well. Next, 30 µL of a culture medium containing the reporter cells and 10 µL of the Tm solution were mixed, and the mixture was added to the 384-well assay plate at 40 µL/well such that the cell density was 18 × 10^3 cells/well, and the whole was incubated at 37°C overnight.
A multi-plate reader Citation 3 (Bio-Tek) was used to determine the EGFP fluorescence intensity (excitation wavelength: 485 nm, fluorescence wavelength: 528 nm) when the test compound was added. A smaller fluorescence intensity indicates more suppression of the increase in activity of the endoplasmic reticulum stress marker induced by Tm.
A "control" containing the Tm solution and, in place of the test compound solution, an equal volume of DMSO was subjected to the measurement of fluorescence intensity in a similar manner. In addition, a "background" containing a solution prepared in the same manner as for the Tm solution except that no Tm was added and containing, in place of the test compound solution, an equal volume of DMSO was subjected to the measurement of fluorescence intensity in a similar manner.
The fluorescence intensity was determined while the concentration of the test compound was varied, and the 50% effective concentration (IC50) of suppressing the endoplasmic reticulum stress response induced by Tm was calculated.

In assay [4] the test system is Familial neurogenic diabetes insipidus model mice. Kind of assay: Suppression of urine output increase in FNDI model mice. It counts as in vivo. Particulars: oral, 30 mg/kg/day or 100 mg/kg/day, once daily for 28 days. Here is the method:
Familial neurogenic diabetes insipidus model mice created by Arima et al. at Nagoya University and carrying a knock-in mutation (Cys98stop) in the neurophysin II gene that causes familial neurogenic diabetes insipidus (FNDI) in humans (Am J Physiol Regul Integr Comp Physiol 2009 296:R1641-9) were divided into two groups. To each group, an IBT-30-containing preparation was forcibly administered orally such that the dosage of IBT-30 was 30 mg/kg/day or 100 mg/kg/day (n=6). The IBT-30-containing preparation was prepared as a suspension of IBT-30 at a final concentration of 0.5% by weight in carboxymethyl cellulose. The oral administration was performed once daily via a feeding tube for 28 days. The urine output was measured daily throughout the 28 days when IBT-30 was administered.

In assay [5] the test system is endogenous molecular chaperones. Put plainly: Induction of endogenous molecular chaperones in cells. To be noted: applied to cells. It counts as cell-based.
The test system of assay [6] is FNDI model mice. Put plainly: Number of mutant protein aggregates (inclusion bodies) in vasopressin neurons of brain tissue. The assay is classed as in vivo. To be noted: oral, 100 mg/kg/day, once daily for 28 days, inclusion bodies of 4.5 µm or more in vasopressin neurons. Here is the method:
To FNDI model mice, the above IBT-30-containing preparation was forcibly administered orally once daily for 28 days such that the dosage of IBT-30 was 100 mg/kg/day (n=6). In a similar manner, a vehicle preparation free from IBT-30 was forcibly administered orally (n=6). […]

Molecules are shown by their SMILES. Bounds are passed on as bounds.

Turning to `O=C(O)CCCc1ccccc1` [Compound 4-PBA, 4-phenylbutyric acid, reference compound], the results for the IC50 in assay [1] and in assay [2] were 5400 µM and 4000 µM, respectively.
Take `CS(=O)(=O)c1ccc2c(c1)sc1nc(-c3ccccc3)cn12` [IBT-21, reference compound]: the IC50 was 0.1 to 1 µM in assay [3], 0.61 µM in assay [1] and 0.61 µM in assay [2].
Regarding `COc1cc(-c2cn3c(n2)sc2cc(S(C)(=O)=O)ccc23)ccc1C(F)(F)F` [IBT-30, 2-(3-Methoxy-4-(trifluoromethyl)phenyl)-7-(methylsulfonyl)benzo[d]imidazo[2,1-b]thiazole], the IC50 was no more than 0.01 µM in assay [3] and 0.004 µM in assay [2]. Besides, in assay [4], the urine output result is “decreases in a dose-dependent manner”. Moreover, in assay [5], the “induction of endogenous molecular chaperones” value is listed as “not induced”. Moreover, the “number of inclusion bodies (mutant protein aggregates)” value in assay [6] is given as “significantly reduced”.
For `C#CCCC1(CCOc2cc(-c3cn4c(n3)sc3cc(S(C)(=O)=O)ccc34)ccc2Cl)N=N1` [IBT-63, 2-(3-(2-(3-(but-3-yn-1-yl)-3H-diazirin-3-yl)ethoxy)-4-chlorophenyl)-7-(methylsulfonyl)benzo[d]imidazo[2,1-b]thiazole 2,2,2-trifluoroacetate], the IC50 was 0.1 to 1 µM in assay [3] and 0.35 µM in assay [2].
In the case of `CCOc1ccc(-c2cn3c(n2)sc2cc(S(C)(=O)=O)ccc23)cc1` [IBT-64, 2-(4-ethoxyphenyl)-7-(methylsulfonyl)benzo[d]imidazo[2,1-b]thiazole], the IC50 in assay [3] was 0.1 to 1 µM; in assay [2], 0.67 µM.
Consider `CC(C)(C)OC(=O)NCCCOc1ccc(-c2cn3c(n2)sc2cc(S(C)(=O)=O)ccc23)cc1` [IBT-66, tert-butyl (3-(4-(7-(methylsulfonyl)benzo[d]imidazo[2,1-b]thiazol-2-yl)phenoxy)propyl)carbamate], for which the IC50 is 0.1 to 1 µM in assay [3] and 0.83 µM in assay [2].
`CCCc1ccc(-c2cn3c(n2)sc2cc(S(C)(=O)=O)ccc23)cc1` [IBT-67, 7-(methylsulfonyl)-2-(4-propylphenyl)benzo[d]imidazo[2,1-b]thiazole]: the figures for the IC50 in assay [3] and in assay [2] were 0.1 to 1 µM and 0.37 µM, respectively.
On to `Cc1ccc2c(c1)sc1nc(-c3ccc(C(F)(F)F)cc3)cn12` [IBT-68, 7-methyl-2-(4-(trifluoromethyl)phenyl)benzo[d]imidazo[2,1-b]thiazole], for which the values for the IC50 in assay [3] and in assay [2] were 0.01 to 0.1 µM and 0.1 µM, respectively.
On to `C#CCCC1(CCOc2cccc(-c3cn4c(n3)sc3cc(S(C)(=O)=O)ccc34)c2)N=N1` [IBT-70, 2-(3-(2-(3-(but-3-yn-1-yl)-3H-diazirin-3-yl)ethoxy)phenyl)-7-(methylsulfonyl)benzo[d]imidazo[2,1-b]thiazole 2,2,2-trifluoroacetate], for which the IC50 was 0.1 to 1 µM in assay [3] and 0.43 µM in assay [2].
For `FC(F)(F)c1ccc(-c2cn3c(n2)sc2c(Br)cccc23)cc1` [IBT-72, 8-bromo-2-(4-(trifluoromethyl)phenyl)benzo[d]imidazo[2,1-b]thiazole], in that order: 0.1 to 1 µM and 0.63 µM.
As to `C#CCCC1(CCNC(=O)CCc2cccc3c2sc2nc(-c4ccc(C(F)(F)F)cc4)cn23)N=N1` [IBT-73, N-(2-(3-(but-3-yn-1-yl)-3H-diazirin-3-yl)ethyl)-3-(2-(4-(trifluoromethyl)phenyl)benzo[d]imidazo[2,1-b]thiazol-8-yl)propanamide 2,2,2-trifluoroacetate], the IC50 is greater than 1 µM in assay [3] and 8.4 µM in assay [2].
On to `CC(C)(C)OC(=O)NCCOCCNC(=O)CCc1cccc2c1sc1nc(-c3ccc(C(F)(F)F)cc3)cn12` [IBT-74, tert-butyl (2-(2-(3-(2-(4-(trifluoromethyl)phenyl)benzo[d]imidazo[2,1-b]thiazol-8-yl)propanamido)ethoxy)ethyl)carbamate], for which the IC50 in assay [3] was greater than 1 µM; in assay [2], 3.7 µM.
On to `CC(C)(C)OC(=O)NCCOCCOCCOc1cccc(-c2cn3c(n2)sc2cc(S(C)(=O)=O)ccc23)c1` [IBT-76, tert-butyl (2-(2-(2-(3-(7-(methylsulfonyl)benzo[d]imidazo[2,1-b]thiazol-2-yl)phenoxy)ethoxy)ethoxy)ethyl)carbamate], for which the IC50 was greater than 1 µM in assay [3] and 4.9 µM in assay [2].
As to `C[C@H](CCC(=O)NCCS(=O)(=O)O)[C@H]1CC[C@H]2[C@@H]3[C@@H](O)C[C@@H]4C[C@H](O)CC[C@]4(C)[C@H]3CC[C@]12C` [TUDCA, tauroursodeoxycholic acid, reference compound], the figures for the IC50 in assay [1] and in assay [2] were 2100 µM and 20 µM, respectively.
Regarding `CCCC(=O)NCCc1csc(-c2ccc(Cl)cc2)n1` [azoramide], in assay [1], the IC50 is 86 µM.

Source of the values: patent EP4741401A1, “BENZOTHIAZOIMIDAZOLYL COMPOUND AND USE THEREOF” (ER Stress Research Institute, Inc., priority 2023, dated 2025).
